# Assay results as given in patent US11846631B2, “Methods for determining drug effects on a mature cardiomyocyte” (ORGANOS, INC., priority 2018, dated 2023).
# Columns and labels:
# ICaL = ICaL (Homo sapiens, UniProt Q13936); conditions: from the literature; cited from earlier work
# the other currents = test: Inversion of voltage and calcium traces measured in hiPSC-CMs in a cardiac MPS (channel block identification); format: cell-based, human; conditions: cisapride 10 nM; measured MPS data of hiPSC-CMs (FIG. 5)
# Source text: [formula] […] The Minimization Procedure
# IKr = IKr (Homo sapiens, UniProt Q12809); conditions: from the literature; cited from earlier work
# IKr, sequence (Q12809 whole entry): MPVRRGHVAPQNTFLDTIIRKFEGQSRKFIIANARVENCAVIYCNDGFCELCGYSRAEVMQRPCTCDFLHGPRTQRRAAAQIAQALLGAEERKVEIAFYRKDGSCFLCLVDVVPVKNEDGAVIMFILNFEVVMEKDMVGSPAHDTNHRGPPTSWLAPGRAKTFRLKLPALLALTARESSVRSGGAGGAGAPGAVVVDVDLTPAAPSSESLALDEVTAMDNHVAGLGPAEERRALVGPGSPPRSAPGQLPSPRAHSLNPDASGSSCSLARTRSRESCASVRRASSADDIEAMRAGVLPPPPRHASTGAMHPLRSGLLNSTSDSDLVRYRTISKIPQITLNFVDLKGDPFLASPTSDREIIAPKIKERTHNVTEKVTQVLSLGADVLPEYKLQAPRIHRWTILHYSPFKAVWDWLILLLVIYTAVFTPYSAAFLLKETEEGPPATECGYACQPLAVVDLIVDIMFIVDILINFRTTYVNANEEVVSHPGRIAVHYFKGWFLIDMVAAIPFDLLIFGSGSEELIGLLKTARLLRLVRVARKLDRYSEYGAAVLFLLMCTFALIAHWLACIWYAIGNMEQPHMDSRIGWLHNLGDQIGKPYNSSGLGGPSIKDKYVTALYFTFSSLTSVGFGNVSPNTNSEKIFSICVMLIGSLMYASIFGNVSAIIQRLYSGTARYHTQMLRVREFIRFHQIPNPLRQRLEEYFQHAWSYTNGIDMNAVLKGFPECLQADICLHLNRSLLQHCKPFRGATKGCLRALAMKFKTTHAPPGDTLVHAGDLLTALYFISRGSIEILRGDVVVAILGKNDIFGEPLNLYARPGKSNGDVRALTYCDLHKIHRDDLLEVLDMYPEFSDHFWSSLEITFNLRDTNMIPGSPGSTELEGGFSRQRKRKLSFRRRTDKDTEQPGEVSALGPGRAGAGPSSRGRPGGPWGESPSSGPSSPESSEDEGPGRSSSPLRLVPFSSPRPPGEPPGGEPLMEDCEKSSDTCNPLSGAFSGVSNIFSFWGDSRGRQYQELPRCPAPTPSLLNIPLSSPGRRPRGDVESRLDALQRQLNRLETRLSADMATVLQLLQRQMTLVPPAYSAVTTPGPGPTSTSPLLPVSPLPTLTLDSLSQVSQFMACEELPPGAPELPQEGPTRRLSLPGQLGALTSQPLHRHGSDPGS
# ICaL, sequence (Q13936 whole entry): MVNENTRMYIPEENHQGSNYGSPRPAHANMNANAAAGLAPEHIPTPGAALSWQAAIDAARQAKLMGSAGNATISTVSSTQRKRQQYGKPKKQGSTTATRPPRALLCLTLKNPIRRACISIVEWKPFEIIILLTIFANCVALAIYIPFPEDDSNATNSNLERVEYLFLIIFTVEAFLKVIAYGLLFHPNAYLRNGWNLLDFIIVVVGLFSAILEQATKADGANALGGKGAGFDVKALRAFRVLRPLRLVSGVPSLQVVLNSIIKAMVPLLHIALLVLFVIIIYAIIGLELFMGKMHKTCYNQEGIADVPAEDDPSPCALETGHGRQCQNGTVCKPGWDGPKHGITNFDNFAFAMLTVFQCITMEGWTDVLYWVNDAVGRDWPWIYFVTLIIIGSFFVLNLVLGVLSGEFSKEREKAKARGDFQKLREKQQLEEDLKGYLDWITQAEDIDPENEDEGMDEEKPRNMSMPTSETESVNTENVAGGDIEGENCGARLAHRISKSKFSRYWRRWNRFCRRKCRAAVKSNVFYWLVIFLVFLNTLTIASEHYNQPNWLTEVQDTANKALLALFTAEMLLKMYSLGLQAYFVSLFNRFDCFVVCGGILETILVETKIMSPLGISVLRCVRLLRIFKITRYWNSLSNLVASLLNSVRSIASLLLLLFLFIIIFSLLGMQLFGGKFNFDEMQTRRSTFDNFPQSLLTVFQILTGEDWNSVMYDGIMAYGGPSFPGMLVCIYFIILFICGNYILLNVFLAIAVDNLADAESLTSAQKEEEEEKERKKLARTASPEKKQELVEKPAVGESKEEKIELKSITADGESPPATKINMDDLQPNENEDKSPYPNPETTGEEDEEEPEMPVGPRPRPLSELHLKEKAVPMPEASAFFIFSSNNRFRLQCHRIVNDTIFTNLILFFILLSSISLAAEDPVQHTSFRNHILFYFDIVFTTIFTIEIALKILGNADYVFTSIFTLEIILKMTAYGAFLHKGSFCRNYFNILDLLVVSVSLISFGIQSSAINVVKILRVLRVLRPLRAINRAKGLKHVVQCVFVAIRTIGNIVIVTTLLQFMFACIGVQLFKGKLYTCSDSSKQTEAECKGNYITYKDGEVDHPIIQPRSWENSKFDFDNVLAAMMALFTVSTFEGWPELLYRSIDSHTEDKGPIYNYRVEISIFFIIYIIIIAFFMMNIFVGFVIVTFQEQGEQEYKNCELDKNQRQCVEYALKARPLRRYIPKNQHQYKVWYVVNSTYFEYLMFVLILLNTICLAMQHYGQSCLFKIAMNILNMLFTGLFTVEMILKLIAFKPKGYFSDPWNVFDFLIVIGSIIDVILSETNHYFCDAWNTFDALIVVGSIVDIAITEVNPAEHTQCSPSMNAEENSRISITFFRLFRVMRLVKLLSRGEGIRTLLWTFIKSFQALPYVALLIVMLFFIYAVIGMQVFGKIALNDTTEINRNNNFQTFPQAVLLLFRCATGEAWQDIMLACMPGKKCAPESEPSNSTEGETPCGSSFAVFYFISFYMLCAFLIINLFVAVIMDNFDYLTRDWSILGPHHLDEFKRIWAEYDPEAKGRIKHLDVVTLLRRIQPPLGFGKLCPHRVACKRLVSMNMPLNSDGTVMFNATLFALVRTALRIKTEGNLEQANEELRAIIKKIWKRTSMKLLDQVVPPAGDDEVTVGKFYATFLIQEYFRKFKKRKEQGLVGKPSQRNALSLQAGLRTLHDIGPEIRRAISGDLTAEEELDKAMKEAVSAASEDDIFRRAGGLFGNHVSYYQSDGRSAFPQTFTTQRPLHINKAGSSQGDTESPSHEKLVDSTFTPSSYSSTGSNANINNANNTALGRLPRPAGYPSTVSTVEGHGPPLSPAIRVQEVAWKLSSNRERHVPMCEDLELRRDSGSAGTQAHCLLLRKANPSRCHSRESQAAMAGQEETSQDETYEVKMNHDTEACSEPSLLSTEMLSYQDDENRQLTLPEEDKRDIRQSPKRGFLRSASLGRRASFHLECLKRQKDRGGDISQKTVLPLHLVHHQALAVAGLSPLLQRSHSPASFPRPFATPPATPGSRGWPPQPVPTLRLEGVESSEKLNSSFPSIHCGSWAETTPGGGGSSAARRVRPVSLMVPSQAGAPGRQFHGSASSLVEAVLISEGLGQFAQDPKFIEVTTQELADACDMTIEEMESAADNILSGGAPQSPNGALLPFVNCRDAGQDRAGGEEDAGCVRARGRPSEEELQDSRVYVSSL
# ICaL, sequence (Q08289 whole entry partner): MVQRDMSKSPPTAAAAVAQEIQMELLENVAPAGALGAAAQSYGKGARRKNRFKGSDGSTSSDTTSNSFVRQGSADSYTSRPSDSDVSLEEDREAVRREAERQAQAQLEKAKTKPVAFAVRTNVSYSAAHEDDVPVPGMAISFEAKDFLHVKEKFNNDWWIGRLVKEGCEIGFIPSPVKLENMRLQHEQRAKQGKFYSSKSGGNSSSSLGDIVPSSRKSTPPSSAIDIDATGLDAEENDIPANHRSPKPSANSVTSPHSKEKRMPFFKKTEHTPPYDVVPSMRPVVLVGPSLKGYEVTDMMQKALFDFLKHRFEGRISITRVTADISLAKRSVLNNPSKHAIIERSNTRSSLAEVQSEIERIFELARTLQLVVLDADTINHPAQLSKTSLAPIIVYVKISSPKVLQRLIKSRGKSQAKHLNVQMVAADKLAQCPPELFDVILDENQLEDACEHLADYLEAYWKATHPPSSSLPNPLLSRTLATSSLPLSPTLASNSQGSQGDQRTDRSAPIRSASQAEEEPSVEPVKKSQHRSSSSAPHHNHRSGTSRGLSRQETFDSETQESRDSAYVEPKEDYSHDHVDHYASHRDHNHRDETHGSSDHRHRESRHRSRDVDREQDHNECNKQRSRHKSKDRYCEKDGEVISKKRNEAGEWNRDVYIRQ
# ICaL, sequence (P54289 25-946 partner limits assumed): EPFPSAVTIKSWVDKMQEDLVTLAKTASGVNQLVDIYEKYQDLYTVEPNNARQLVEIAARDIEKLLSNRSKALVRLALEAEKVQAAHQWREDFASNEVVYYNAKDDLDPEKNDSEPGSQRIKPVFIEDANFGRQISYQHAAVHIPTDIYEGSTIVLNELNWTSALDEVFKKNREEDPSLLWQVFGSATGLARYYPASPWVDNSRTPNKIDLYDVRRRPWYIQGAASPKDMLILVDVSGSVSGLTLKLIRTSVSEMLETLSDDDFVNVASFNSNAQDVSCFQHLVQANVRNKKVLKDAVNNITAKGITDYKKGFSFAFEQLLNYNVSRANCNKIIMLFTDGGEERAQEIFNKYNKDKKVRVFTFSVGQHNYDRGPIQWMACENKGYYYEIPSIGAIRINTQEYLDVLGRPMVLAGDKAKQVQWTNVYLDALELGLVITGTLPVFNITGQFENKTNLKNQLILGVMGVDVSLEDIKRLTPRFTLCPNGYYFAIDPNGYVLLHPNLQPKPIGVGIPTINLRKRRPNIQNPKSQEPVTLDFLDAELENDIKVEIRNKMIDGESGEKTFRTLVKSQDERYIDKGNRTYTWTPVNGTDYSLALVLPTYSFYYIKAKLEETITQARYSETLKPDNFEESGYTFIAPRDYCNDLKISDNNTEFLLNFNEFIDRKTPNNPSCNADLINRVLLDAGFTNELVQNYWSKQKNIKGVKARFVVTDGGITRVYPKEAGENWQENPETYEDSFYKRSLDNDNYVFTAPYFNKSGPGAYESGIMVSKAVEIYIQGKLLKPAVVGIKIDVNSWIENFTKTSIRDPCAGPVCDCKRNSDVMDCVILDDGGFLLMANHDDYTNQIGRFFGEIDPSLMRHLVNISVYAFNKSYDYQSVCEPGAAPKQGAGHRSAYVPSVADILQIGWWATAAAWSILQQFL
# ICaL, sequence (P54289 947-1103 partner limits assumed): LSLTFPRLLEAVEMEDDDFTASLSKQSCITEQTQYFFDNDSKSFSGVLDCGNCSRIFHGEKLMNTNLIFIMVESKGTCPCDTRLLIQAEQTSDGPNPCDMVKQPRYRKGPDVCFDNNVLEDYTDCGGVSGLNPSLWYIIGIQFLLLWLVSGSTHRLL
compound,measurement,setting,value
COc1ccc(CCN(C)CCCC(C#N)(c2ccc(OC)c(OC)c2)C(C)C)cc1OC (stereo not drawn) [verapamil],Known effect on ICaL,ICaL,blocks
COc1cc(N)c(Cl)cc1C(=O)NC1CCN(CCCOc2ccc(F)cc2)CC1OC (stereo not drawn) [cisapride],"Effect on the other currents, full inversion procedure",the other currents,nearly unaffected
same,Known effect on IKr,IKr,blocks
